{
  "source": "patent US12492403B2",
  "about": "“Aptamers and the use thereof in the treatment of cancer” (FUNDACIÓN PARA LA INVESTIGACIÓN BIOMÉDICA DEL HOSPITAL …, priority 2018, dated 2025)",
  "key": {"[1]": {"test_system": "MDA-MB-468 cells", "assay": "MTT activity assay, aptamers transfected with Lipofectamine 2000", "assay_type": "cell-based, human", "settings": "MDA-MB-468, MTT activity at 48 hours, 0 to 500 nM", "description": "FIGS. 8A-8C. Effect of aptamer apMNKQ2 on MTT activity of breast cell lines. MCF7, MDA-MB-231, and MDA-MB-468 cells were seeded in 96-well plates at a density of 10^4 cells/well. […] The graphs represent the means±SEM of 3 independent experiments (*p<0.05, **p<0.01, and ***p<0.001 with respect to the control AT).\nThe Lipofectamine™ 2000 system (Invitrogen, USA) was used to treat cells with the different aptamers. To prepare the DNA-lipofectamine complex, lipofectamine and DNA were separately diluted in opti-MEM (Gibco, USA) and left to incubate at room temperature for 5 minutes. They were then mixed to form lipofectamine-DNA complexes and incubated for 20 minutes at room temperature. Finally, the mixture was added to the cells that had been washed twice with antibiotic-free medium to prevent the interference thereof with lipofectamine. The cells were incubated at 37° C. for 5 hours, after which the reagent was removed and a complete medium was added.\nMTT activity. The cells were seeded in 96-well plates and after having been transfected, the culture medium was removed and 100 μL/well of MTT at 1 mg/ml in culture medium were added. […] After 48 hours, the reduction of MTT was determined by means of spectrophotometry in Infinite F200 (TECAN, Switzerland) at 540 nm.\nThe results were expressed as the percentage of viability with respect to the control or in absorbance units."}, "[2]": {"test_system": "MNK1", "assay": "Apta-western with biotin-labeled aptamer", "assay_type": "binding", "description": "FIGS. 6A-6C. Characterization of the interaction of aptamer apMNKQ2 with MNK1 by means of Apta-western. Detection of MNK1a and MNK1b, as well as of the two GST-bound variants MNK1aΔ77 and MNK1ΔCt, with biotin-labeled aptamer apMNKQ2 in electrophoresis (12%) in denaturing conditions (FIG. 6A) and in native conditions (without SDS or β-mercaptoethanol) (FIG. 6B). Quantification of protein levels in relation to MNK1a (*p<0.05 with respect to 1) (FIG. 6C).\nIn the apta-western assays, the proteins were resolved in polyacrylamide gels in native or denaturing conditions, transferred to PVDF membranes, and incubated with aptamers and streptavidin-peroxidase as indicated above after blocking with 5% PBS-BSA. Finally, the signal was visualized with the chemiluminescence developing system (Clarity Western ECL, BioRad, USA).\nOn the other hand, apta-western assays were carried out to confirm the affinity of the aptamer apMNKQ2 for proteins MNK1a and MNK1b. To that end, the four constructs used in FIG. 5A were analyzed by electrophoresis, blot, and apta detection. […] This may be due to the fact that the site the aptamer recognizes may not be accessible in all the proteins when they are structured and said site may be exposed as the proteins denature. […] The result is shown in FIG. 6B and quantified in FIG. 6C."}, "[3]": {"test_system": "ribosomal protein S6", "assay": "Western blot of phosphorylation, combined therapy study", "assay_type": "cell-based, human", "settings": "MDA-MB-231 and MCF7 cells, 24 hours", "description": "(§1) FIG. 22A & 22B. Combined therapy studies of apMNKQ2 and everolimus. […] The different antibodies used are indicated.\n(§2) Seventy-two hours after treatment, MTT activity was measured."}, "[4]": {"test_system": "eIF4E", "assay": "Western blot of phosphorylation, combined therapy study", "assay_type": "cell-based, human", "settings": "MDA-MB-231 and MCF7 cells, 24 hours", "description": "as §1, §2"}, "[5]": {"test_system": "AKT", "assay": "Western blot of phosphorylation, combined therapy study", "assay_type": "cell-based, human", "settings": "MDA-MB-231 and MCF7 cells, 24 hours", "description": "as §1, §2"}},
  "data": [
    {"substance": "5′TGGGGTGGGCGGGCGGGGGTGGGGGTGGT-3′ (DNA, backbone and methylation of C not given here; further chemistry not fully specified) [apMNKQ2]", "values": [
      {"measurement": "GI50", "setting": "[1]", "value": 19, "unit": "nM"},
      {"measurement": "recognition of MNK1a, MNK1b, MNK1aΔ77 and MNK1ΔCt (apta-western)", "setting": "[2]; denaturing conditions", "value": "capable of recognizing and binding to the four isoforms of the protein in a similar manner"},
      {"measurement": "recognition of MNK1a, MNK1b, MNK1aΔ77 and MNK1ΔCt (apta-western)", "setting": "[2]; native conditions (without SDS or β-mercaptoethanol)", "value": "capable of significantly differentiating MNK1b from other isoforms"},
      {"measurement": "phosphorylation of ribosomal protein S6 (dependent on mTOR activity)", "setting": "[3]", "value": "also affects this phosphorylation"},
      {"measurement": "phosphorylation of eIF4E", "setting": "[4]", "value": "no effect"},
      {"measurement": "phosphorylation of AKT", "setting": "[5]", "value": "no effect"}
    ]}
  ]
}
